What was measured:
[1] = Metabolic stability in monkey liver microsome assessed as half life preincubated for 5 mins followed by NADPH addition and measured after 120 mins by LC-MS/MS analysis; assay type: ADME, Macaca mulatta; conditions: rhesus monkey, liver microsomes; time 125 min
[2] = Metabolic stability in human liver microsome assessed as intrinsic clearance preincubated for 5 mins followed by NADPH addition and measured after 120 mins by LC-MS/MS analysis; assay type: ADME; conditions: liver microsomes, time 125 min, read-out: CLH
[3] = Metabolic stability in mouse liver microsome assessed as half life preincubated for 5 mins followed by NADPH addition and measured after 120 mins by LC-MS/MS analysis; assay type: ADME; conditions: liver microsomes, time 125 min
[4] = Tmax in ICR mouse at 10 mg/kg, po measured up to 24 hrs; assay type: ADME, organism-based; conditions: in vivo
[5] = Half life in ICR mouse at 10 mg/kg, po measured up to 24 hrs; assay type: ADME, organism-based; conditions: in vivo
[6] = Metabolic stability in dog liver microsome assessed as intrinsic clearance preincubated for 5 mins followed by NADPH addition and measured after 120 mins by LC-MS/MS analysis; assay type: ADME, Canis lupus familiaris; conditions: liver microsomes, time 125 min, read-out: CLH
[7] = Metabolic stability in mouse liver microsome assessed as intrinsic clearance preincubated for 5 mins followed by NADPH addition and measured after 120 mins by LC-MS/MS analysis; assay type: ADME; conditions: liver microsomes, time 125 min, read-out: CLH
[8] = Metabolic stability in rat liver microsome assessed as half life preincubated for 5 mins followed by NADPH addition and measured after 120 mins by LC-MS/MS analysis; assay type: ADME; conditions: liver microsomes, time 125 min
[9] = Cmax in ICR mouse at 10 mg/kg, po measured up to 24 hrs; assay type: ADME, organism-based; conditions: in vivo
[10] = AUC (0 to t) in ICR mouse at 10 mg/kg, po measured up to 24 hrs; assay type: ADME, organism-based; conditions: in vivo
[11] = AUC (0 to infinity) in ICR mouse at 10 mg/kg, po measured up to 24 hrs; assay type: ADME, organism-based; conditions: in vivo
[12] = Metabolic stability in dog liver microsome assessed as half life preincubated for 5 mins followed by NADPH addition and measured after 120 mins by LC-MS/MS analysis; assay type: ADME, Canis lupus familiaris; conditions: liver microsomes, time 125 min
[13] = Metabolic stability in monkey liver microsome assessed as intrinsic clearance preincubated for 5 mins followed by NADPH addition and measured after 120 mins by LC-MS/MS analysis; assay type: ADME, Macaca mulatta; conditions: rhesus monkey, liver microsomes; time 125 min; read-out: CLH
[14] = Metabolic stability in rat liver microsome assessed as intrinsic clearance preincubated for 5 mins followed by NADPH addition and measured after 120 mins by LC-MS/MS analysis; assay type: ADME; conditions: liver microsomes, time 125 min, read-out: CLH
[15] = Metabolic stability in human liver microsome assessed as half life preincubated for 5 mins followed by NADPH addition and measured after 120 mins by LC-MS/MS analysis; assay type: ADME; conditions: liver microsomes, time 125 min

- half-life [1]: 0.997 h
- CLint scaled [2]: 20.3 mL/min/kg
- half-life [3]: 1 h
- Tmax [4]: 0.25 h
- half-life [5]: 1.92 h
- CLint scaled [6]: 30 mL/min/kg
- CLint scaled [7]: 90.8 mL/min/kg
- half-life [8]: > 2 h
- Cmax [9]: 3510 ng/mL
- AUC(0-t) at 24 h [10]: 13300 ng·h/mL
- AUC(0-inf) [11]: 14200 ng·h/mL
- half-life [12]: 1.92 h
- CLint scaled [13]: 33.9 mL/min/kg
- CLint scaled [14]: < 20.7 mL/min/kg
- half-life [15]: 1.43 h
Compound: COc1ncnc(C2CC2)c1-c1nc(N2CCOC[C@H]2c2ccc(-c3nc(C(F)(F)F)cn3C(C)C)cc2)c2occc2n1

From ChEMBL document CHEMBL6096740, “Discovery and Optimization of a Series of Novel Morpholine-Containing USP1 Inhibitors” (J Med Chem, 2025)
